Experimental findings from US5464754A, “Assay and substrate for arachidonoyl-specific phospholipase A2” (The Regents of the University of California, priority 1993, dated 1995) are described below.

In test [1] the test system is cPLA enzyme. In words: Effect of solvent and diluent components on cPLA enzyme activity. Type of test: biochemical, human. The method, then: The substrate diluent generally comprises any suitable assay buffer system, such as HEPES, Tris-HCL, Tris-maleate, glycine, or the like. […] A suitable diluent comprises about 25% -50% glycerol, and preferably about 30% glycerol.
The thiosubstrate diluent also comprises an amount of detergent sufficient to solubilize! the substrate. One suitable detergent is Triton-X 100. Triton-X 100 is preferably used at concentrations of about 1-5 mM with about 1-3 mM thiosubstrate.
The Ca^2+ can be provided by the addition of CaCl2 to the diluent, preferably at concentrations greater than 1 mM, and more preferably at a concentration of about 10 mM.
The effectiveness of a phospholipase A2 enzyme inhibitor can be measured by adding the inhibitor to the substrate solution prior to the incubation with enzyme. […] Therefore, approximately 10 μl inhibitor dissolved in DMSO can be added to 200 μl substrate solution prior to the addition of enzyme to test the effectiveness of the inhibitor against cPLA. […] Thus, appropriate blanks should be run under each condition tested.

The test system of test [2] is cPLA enzyme. In words: Sensitivity of cPLA enzyme to thiol-sensitive reagents. Type of test: biochemical, human. The conditions noted are these: in the presence of DTNB (Ellman's reagent). The protocol:
The sPLA enzymes are very stable, containing 7 disulfide bonds. […] In contrast, cPLA is an intracellular enzyme and assays and purifications are often run in the presence of reduced thiols, such as 2-mercaptoethanol or dithiothreitol (Kramer et al., supra; Clark, J. D., et al., supra).
After an incubation period, the enzyme/substrate reaction is quenched by the addition of a quenching reagent and a thiol-sensitive reagent. As used herein, the term "quenching reagent" refers to any compound capable of stopping the enzymatic activity of phospholipase A2 enzyme. Suitable quenching reagents are Ca^2+ chelators such as ethylene glycol bis(oxyethylenenitrilo) tetraacetic acid (EGTA) and the like, or high concentrations of a detergent such as 30 mM Triton X-100. The thiol-sensitive reagent can be any reagent capable of releasing a chromophore such as DTNB or 4,4'-dithiodipyridine (DTP). DTNB is a preferred thiol-sensitive reagent because its chromophore can be detected at […], which is available to most microtiterplate readers.

Test [3] deals with cPLA2 (purified, recombinant human). In words: Microtiterplate assay for cPLA2 using thioPC substrate. The class given is biochemical. The method, then: The enzyme activity of CPLA2 was assayed using a ThioPC/Triton X-100 substrate solution. An appropriate volume of ThioPC in chloroform solution was evaporated to dryness under a stream of N2. Triton X-100 (8 mM) in 2× assay buffer (160 mM HEPES, pH 7.4, 300 mM NaCl, 20 mM CaC2, 2 mg/ml BSA) was added to the dried lipid in one-half the desired final volume to give a 2-fold concentrated substrate solution. This solution was bath sonicated 1 min to loosen dried ThioPC from the walls of the vial and then probe sonicated On ice, 20 sec on, 20 sec off for 3 min. The solution was then warmed to 40° C. and warm glycerol equivalent to 30% of the final volume was added. The solution was then brought to the desired final volume with deionized H2 O. The final assay contained 2 mM ThioPC, 4 mM Triton! X-100 and 30% glycerol in 80 mM HEPES, pH 7.4, 150 mM NaCl, 10 mM CaCl2 and 1 mg/ml BSA.
The substrate was then aliquotted, in 200 μl increments, into the wells of a 96-well plate and equilibrated for 5 min at 37° C. To initiate the reaction, 500 ng cPLA2 (purified, recombinant human), in a 5 μl volume of 1× assay buffer, was added to the wells, the plate was shaken 20 seconds on high to mix, and then incubated for 60 min at 37° C. […]
After 60 min, 10 μl of a 25 mM DTNB/475 mM EGTA mixture was added to all substrate containing wells to quench the reaction and initiate the color development. […] After adding the DTNB/EGTA, the plate was once again shaken 20 sec on high and allowed to incubate for an additional 3 min to give the DTNB chromophore time to fully develop prior to reading the plate. The absorbance was measured using a dual wavelength option (405 nm -620 nm) to correct for light scattering. […] The average absorbance of the blanks was subtracted from that of the enzyme containing wells to correct for the absorbance due to the substrate, DTNB, and EGTA. The difference in absorbance was used to calculate enzyme activity. […] Specific activity was calculated using ε405 for DTNB of 12,800 M^- cm^-1 (Yu et al supra) and a path length of 0.47 cm for 215 μl final total volume. […]

`C[S+](C)[O-]` [DMSO]: the “effect of DMSO on enzyme activity” value with cPLA enzyme [1] (DMSO:enzyme/substrate ratio of about 1:20) is “unaffected”.

`O=C(O)c1cc(SSc2ccc([N+](=O)[O-])c(C(=O)O)c2)ccc1[N+](=O)[O-]` [DTNB, 5,5'-dithiobis(2-nitrobenzoic acid)]: the “enzymatic activity of cPLA in the presence of thiol-sensitive reagent” value in the test with cPLA enzyme [2] is “enzymatic activity was lost”.

With `OCC(O)CO` [glycerol], the “effect of glycerol on enzyme activity” value is on record as “enzyme activity is increased” in the test on cPLA enzyme [1] (about 70% glycerol, diluent too viscous) and “Enzyme activity increases” with cPLA enzyme [1] (glycerol as component of substrate diluent).

For the molecule `CCCCC/C=C\C/C=C\C/C=C\C/C=C\CCCC(=O)S[C@H](COCCCCCCCCCCCCCCCC)COP(=O)([O-])OCC[N+](C)(C)C` [thioPC, 1-hexadecyl-2-arachidonoylthio-2-deoxy-sn-glycero-3-phosphorylcholine], the “enzyme activity as a function of time: more linear phase” value in test [3] (2 mM ThioPC, 4 mM Triton X-100, 30% glycerol, pH 7.4, 37° C., FIG. 3) lay in the range of 5 to 60 min. Besides, in test [3] (2 mM ThioPC, 4 mM Triton X-100, 30% glycerol, pH 7.4, 37° C., FIG. 3, short burst of activity), the “enzyme activity as a function of time: burst phase” value worked out at 5 min.

In the case of Triton X-100, the “effect of Triton X-100 on stability of cPLA activity” value with cPLA enzyme [1] (Triton X-100 at about 1-5 mM with about 1-3 mM thiosubstrate) is on record as “more stable”.

B1: cPLA: 85 kDa arachidonic acid specific enzyme; purified, recombinant human (protein, UniProt P47712 1-749, looked up)
Cytosolic phospholipase A2: MSFIDPYQHIIVEHQYSHKFTVVVLRATKVTKGAFGDMLDTPDPYVELFISTTPDSRKRTRHFNNDINPVWNETFEFILDPNQENVLEITLMDANYVMDETLGTATFTVSSMKVGEKKEVPFIFNQVTEMVLEMSLEVCSCPDLRFSMALCDQEKTFRQQRKEHIRESMKKLLGPKNSEGLHSARDVPVVAILGSGGGFRAMVGFSGVMKALYESGILDCATYVAGLSGSTWYMSTLYSHPDFPEKGPEEINEELMKNVSHNPLLLLTPQKVKRYVESLWKKKSSGQPVTFTDIFGMLIGETLIHNRMNTTLSSLKEKVNTAQCPLPLFTCLHVKPDVSELMFADWVEFSPYEIGMAKYGTFMAPDLFGSKFFMGTVVKKYEENPLHFLMGVWGSAFSILFNRVLGVSGSQSRGSTMEEELENITTKHIVSNDSSDSDDESHEPKGTENEDAGSDYQSDNQASWIHRMIMALVSDSALFNTREGRAGKVHNFMLGLNLNTSYPLSPLSDFATQDSFDDDELDAAVADPDEFERIYEPLDVKSKKIHVVDSGLTFNLPYPLILRPQRGVDLIISFDFSARPSDSSPPFKELLLAEKWAKMNKLPFPKIDPYVFDREGLKECYVFKPKNPDMEKDCPTIIHFVLANINFRKYRAPGVPRETEEEKEIADFDIFDDPESPFSTFNFQYPNQAFKRLHDLMHFNTLNNIDVIKEAMVESIEYRRQNPSRCSVSLSNVEARRFFNKEFLSKPKA
Turning to B1, the “range of enzyme amount with linear activity” value in test [3] (FIG. 2, thiosubstrate assay, listed as cytosolic phospholipase A2) was in the range of 0.05 to 1.0 µg.
